A short description of this data set: Impurity profile (related substances) by HPLC, initial and after one month at 40° C. (stability study). Format: physicochemical. The following applies: HPLC percent area. The method, then: The percentages of related substances were measured using an HPLC.
Stock promethazine HCl selectivity solution was prepared by accurately weighing about 2 mg of EP promethazine for peak identification CRS and transferring into 1 mL of diluent (prepared by mixing 750 mL of mobile phase A and 250 mL of acetonitrile), followed by vortexing to dissolve.
Ten capsules were randomly selected and weighed. The contents of the ten capsules were emptied into a 500 mL volumetric flask. 300 mL of diluent was added and the mixture was sonicated in an ice bath for 40 minutes or until completely disintegrated with intermittent swirling. The temperature was equilibrated to room temperature and more diluent was added to volume.
Promethazine HCl impurity sample solution: stock solution sample was filtered through a 0.45 μm PVDF membrane, syringe filter or a 0.45 μm PTFE w/GMF membrane, syringe filter discarding the first 5 mL and collecting approximately 20 mL into an appropriate glass container. Fill an HPLC vial with the filtrate
The RT of the promethazine in the promethazine HCl selectivity solution is between 44.1 and 53.9.
Mobile Phase B: 0.2% TFA in Acetonitrile, which was prepared by mixing well 2.0 ml of trifluoroacetic acid to 1 L of acetonitrile; and Gradient used was as follows in Table 15.
All known and unknown impurities were calculated via percent area as follow:
[formula] Where: • Ru=Peak area of related substance in the sample solution • Rt=Sum of peak area of promethazine or sumatriptan and all related substances areas corresponding to respective peak in sample solution • RRF=Relative Response Factor for related substances
The formulation was examined for its stability after one month at 40° C.

Results on 1 compound are retold here after patent publication US10772840B2 (Charleston Laboratories, Inc., priority 2016, dated 2020).

SMILES strings stand for the structures. Structures can show the parent of a compound that is named as a salt.

For the compound `CC(CN1c2ccccc2Sc2ccccc21)N(C)C` (centres unmarked) [Promethazine, Promethazine Hydrochloride], the “Impurity percentages, all related substances combined” value was 0.2% (in a capsule stored at 40° C. for 1 month) and 0.3% (in a capsule, initial (before storage)).
